Measurements reported in publication PMC9881724, “Rational design of potent ultrashort antimicrobial peptides with programmable assembly into nanostructured hydrogels” (Frontiers in Chemistry, 2023).
Values after ≈ are worked out from the molar mass of the structure shown. Residues, ends and D or L forms follow the SMILES beside them. *: point of attachment. Fmoc = O=C(OCC1c2ccccc2-c2ccccc21)*

How the values were obtained:
[1] = tested on: S. aureus Methicillin resistant; assay: Fluorescence assisted cell sorting (FACS) live/dead assay; type: cell-based; settings: overnight 36-37°C, SYTO 9/propidium iodide
Method: (§1) FACS assay was performed following the LIVE/DEAD™ BacLight™ Bacterial Viability Kit (L7012) instructions and stablished procedures ([Berney et al., 2007]; [Robertson et al., 2019]), in which bacteria were grown in Mueller Hinton Broth and fungal in Sabouraud Broth overnight to a late–log phase. Then, 900 μl of the cell suspension was added to 100 μl of five different concentrations of peptides solution and incubated overnight at 36°C–37°C. On the next day, the suspension was centrifuged at 10,000 × g for 10 min and the supernatant fraction was removed from the samples. The pellets were resuspended with 1 ml of PBS buffer and incubated at room temperature for 1 h, mixing every 15 min. The sample was centrifuged at 10,000 × g for 10 min, the supernatant removed followed by the resuspension of the pellet in 1 ml of PBS. The washing steps were repeated twice. To perform the staining of the cells, equal volumes of SYTO® 9 and propidium iodide were combined in a microfuge tube and 3 µl of the dye mixture was added to each microbial suspension. The sample was incubated at room temperature in the dark for 15 min. The evaluation of cell viability was performed through the calculation of the red to green fluorescence ratio to determine the proportion of live cells in a sample.

E. coli = assay: as above; type: cell-based; settings: overnight 36-37°C, SYTO 9/propidium iodide
Method: as §1

[2] = tested on: C. auris Fluconazole resistant; assay: as above; type: cell-based; settings: overnight 36-37°C, SYTO 9/propidium iodide
Method: as §1

E. faecium = type: cell-based; settings: 1 h
Method: (§2) Minimal inhibitory concentration (MIC) assays were performed following a standard broth dilution procedure ([Wiegand et al., 2008]) in which bacteria were grown in MHB and fungal in SB overnight. The overnight bacterial suspension was adjusted to 10^6 CFU/ml in broth according to MacFarlane standard. Bacterial solutions were mixed in 96-well plates with the peptide solution to reach final concentrations of peptides ranging from 1,082 to 2 μM, including inhibition control (Indolicidin), growth control, and sterility control. Within each MIC experiment, each peptide was tested in triplicate across this concentration range and repeated on 3 independent days. Media and glassware were sterilized at 120°C for 1 h with an autoclave prior to all bioassays.

[3] = Peptide assembly state from ATR-FTIR arginine side-chain vibrations; type: physicochemical; settings: ATR-FTIR 25°C
Method: The peptides were prepared by mixing the lyophilized peptide directly with type 1 water, vortexed for a few seconds to obtain an isotropic solution and stored at 4°C–5°C in between experiments.
Data was recorded at 25°C using a Tensor-II spectrometer (Bruker, Germany) equipped with a Bio-ATR attachment (Bruker, Germany) by directly depositing the samples on the ATR crystal as previous reported by our group ([Dharmadana et al., 2019]). Spectra were collected over 32 scans within 4,000–400 cm^−1 wavenumber range at a resolution of 4 cm^−1. Associated water signal was subtracted from the resulting spectra, and secondary derivatives were calculated using OPUS software (Bruker, Germany).

[4] = tested on: Candida albicans ATCC 10231; type: cell-based; settings: ATCC 10231, 1 h
From the text: (§3) Indolicidin (sequence: ILPWKWPWWPWRR-NH2, molecular weight: 1,906.3 g/mol) and FMOC-WWRR-NH2 (molecular weight: 924.1) were obtained from ChemPep (USA) as lyophilized powder and acetate salts with a purity >95%. Ethanol and Congo red were purchased from Sigma-Aldrich (Australia). Sodium chloride was purchased from Alfa Aesar (United Kingdom). The negative staining agent phosphotungstic acid was purchased from Proscitech (Australia). A Milipore filter system was utilized to obtain Milli-Q water. BD Difco Mueller Hinton Broth (MHB) and Sabouraud broth (SB) were purchased from Cell biosciences (Australia). Strains: E. coli NCTC 10418, P. aeruginosa ATCC 9721, E. faecalis ATCC 19433, S. aureus ATCC 25923, S. aureus ATCC BAA-1756 (methicillin resistant), Streptococcus pneumoniae ATCC 49619, Candida albicans ATCC 10231 and Candida auris DSM 21092 (Fluconazole resistant) were provided by the RMIT microbial culture collection. Bacterial strains were stored in 50% glycerol at −20 and −80°C.
as §2

E. faecalis ATCC 19433 = type: cell-based; settings: ATCC 19433, 1 h
From the text: as §3, §2

[5] = tested on: Streptococcus pneumoniae ATCC 49619; type: cell-based; settings: ATCC 49619, 1 h
From the text: as §3, §2

S. aureus ATCC 25923 = type: cell-based; settings: ATCC 25923, 1 h
From the text: as §3, §2

[6] = tested on: Candida auris DSM 21092 (Fluconazole resistant); type: cell-based; settings: DSM 21092, 1 h
From the text: as §3, §2

P. aeruginosa ATCC 9721 = type: cell-based; settings: ATCC 9721, 1 h
From the text: as §3, §2

[7] = tested on: S. aureus ATCC BAA-1756 (methicillin resistant); type: cell-based; settings: ATCC BAA-1756, 1 h
From the text: as §3, §2

E. coli NCTC 10418 = type: cell-based; settings: NCTC 10418, 1 h
From the text: as §3, §2

Which Dead % ([1]; 12 µM peptide) does the source give for `N=C(N)NCCC[C@H](NC(=O)[C@H](CCCNC(=N)N)NC(=O)[C@H](Cc1c[nH]c2ccccc12)NC(=O)[C@@H]1CCCN1C(=O)[C@H](Cc1c[nH]c2ccccc12)NC(=O)OCC1c2ccccc2-c2ccccc21)C(N)=O` [P-Priscilicidin, Fmoc-WPWRR-NH2] (Fmoc-WPWRR-NH2) here?
Its Dead % is 5%.

And the Live % ([1]; 12 µM peptide)?
Its Live % is 95%.

And the Dead % ([1]; 24 µM peptide)?
Its Dead % is 7%.

And the Live % ([1]; 24 µM peptide)?
Its Live % is 95%.

And the Dead % ([1]; 98 µM peptide)?
The Dead % was 83%.

What about the Live % ([1]; 98 µM peptide) of the same molecule?
The Live % was 19%.

What about the Dead % ([1]; 196 µM peptide) of the same molecule?
The Dead % was 97%.

What about the Live % ([1]; 196 µM peptide) of the same molecule?
Its Live % is 4%.

What about the “FACS minimum concentration showing over 90% dead microbes, S. aureus Methicillin resistant” value [1] of the same molecule?
The value was 196 µM.

What about the Dead % (E. coli; 12 µM peptide) of the same molecule?
The Dead % was 2%.

And the Live % (E. coli; 12 µM peptide)?
Its Live % is 93%.

What about the Dead % (E. coli; 24 µM peptide) of the same molecule?
The Dead % was 33%.

And the Live % (E. coli; 24 µM peptide)?
Its Live % is 57%.

What about the Dead % (E. coli; 49 µM peptide) of the same molecule?
The Dead % was 48%.

And the Live % (E. coli; 49 µM peptide)?
Its Live % is 33%.

And the Dead % (E. coli; 98 µM peptide)?
The Dead % was 44%.

What about the Live % (E. coli; 98 µM peptide) of the same molecule?
Its Live % is 35%.

And the Dead % (E. coli; 196 µM peptide)?
The Dead % was 89%.

What about the Live % (E. coli; 196 µM peptide) of the same molecule?
The Live % was 2%.

And the “FACS minimum concentration showing over 90% dead microbes, E. coli” value (E. coli)?
The value was 196 µM.

And the Dead % ([2]; 12 µM peptide)?
The Dead % was 33%.

And the Live % ([2]; 12 µM peptide)?
The Live % was 67%.

And the Dead % ([2]; 24 µM peptide)?
The Dead % was 95%.

And the Live % ([2]; 24 µM peptide)?
Its Live % is 4%.

And the Dead % ([2]; 49 µM peptide)?
The Dead % was 98%.

And the Live % ([2]; 49 µM peptide)?
Its Live % is 2%.

What about the Dead % ([2]; 98 µM peptide) of the same molecule?
Its Dead % is 98%.

What about the Live % ([2]; 98 µM peptide) of the same molecule?
Its Live % is 1%.

And the Dead % ([2]; 196 µM peptide)?
The Dead % was 98%.

And the Live % ([2]; 196 µM peptide)?
Its Live % is 2%.

What about the “MIC E. faecium” value (E. faecium) of the same molecule?
The value was 61 µM (≈ 62.3 µg/mL).

What about the “Interpretation for peptide assembly according to MD” value (“Interpretation” for short) ([3]; 1 % wt in water, 30 days after mixing) of the same molecule?
Its value is “monomer/globular oligomer”.

What about the “Interpretation” value ([3]; 1 % wt in water, time after mixing 0) of the same molecule?
The value was “monomer/globular oligomer”.

And the “Interpretation” value ([3]; 5 % wt in water, 30 days after mixing)?
The value was “monomer/globular oligomer”.

What about the “Interpretation” value ([3]; 5 % wt in water, time after mixing 0) of the same molecule?
Its value is “monomer/globular oligomer”.

And the “Interpretation” value ([3]; 10 % wt in water, 30 days after mixing)?
Its value is “monomer/globular oligomer”.

What about the “Interpretation” value ([3]; 10 % wt in water, time after mixing 0) of the same molecule?
The value was “monomer/globular oligomer”.

And the “MIC C. albicans” value [4]?
Its value is 15 µM (≈ 15.3 µg/mL).

What about the “MIC E. faecalis” value (E. faecalis ATCC 19433) of the same molecule?
Its value is 61 µM (≈ 62.3 µg/mL).

And the “MIC S. pneumoniae” value [5]?
Its value is 31 µM (≈ 31.7 µg/mL).

What about the “MIC S. aureus” value (S. aureus ATCC 25923) of the same molecule?
The value was 31 µM (≈ 31.7 µg/mL).

What about the “MIC C. auris Fluconazole resistant” value [6] of the same molecule?
The value was 31 µM (≈ 31.7 µg/mL).

And the “MIC P. aeruginosa” value (P. aeruginosa ATCC 9721)?
Its value is 61 µM (≈ 62.3 µg/mL).

What about the “MIC S. aureus Methicillin resistant” value [7] of the same molecule?
Its value is 61 µM (≈ 62.3 µg/mL).

What about the “MIC E. coli” value (E. coli NCTC 10418) of the same molecule?
Its value is 122 µM (≈ 125 µg/mL).
